89 compounds from a melting point compilation (Tetko et al.; mined from patent text by program, amines drawn as free bases though some values may be those of a salt) can be followed below.

In the case of `CCOC(=O)C1=C(C)Nc2snc(CCN3CCN(c4ccccc4)CC3)c2C1c1cccc([N+](=O)[O-])c1` (single isomer, unassigned; (+)), the melting point (usually the temperature, or range, at which the solid turns liquid) is 148 to 149 °C.
For the compound `CCOc1cc(Cn2[nH]c(N)cc2=O)ccc1Cl`, the melting point amounted to 143 °C.
The same measure for `O=S1c2ccccc2N(CCCCl)c2ccccc21`: 171 to 173 °C; for `CCOCc1nc2c(N)nc3cc(-c4cccc(C(=O)N5CCCC5)c4)ccc3c2n1CC(C)(C)O`: 216 to 218 °C; for `O=C1OCCC1=Cc1ccccc1O`: 162 to 164 °C.
The same measure for `CC(C)c1cc2c(cc1CSCC(=O)O)OCO2`: 83 to 84 °C; for `COc1cc(-c2c(Cl)c(CN3CCCC3=O)nc3sc4c(c23)CCN(Cc2ccccc2)C4)ccc1O`: 190 to 191 °C; for `CC(C)(NC=O)c1ccc(C(F)(F)C(F)(F)c2ccccc2)cc1`: 116 to 117 °C.
The result for `CC(C)(C)OC(=O)N1CCC(n2cc(-c3ccc(Oc4ccccc4)cc3)c3c(N)ncnc32)CC1` reads 168 to 170 °C; that for `CCOC(=O)c1cnc2n(c1=O)C(C)CC=C2Nc1ccccc1` (centres undefined), 119 to 120 °C.
For `NC(=O)c1ccc(OC2CCN(Cc3ccccc3)CC2)cc1`, the melting point was 166 to 168 °C.
`C=CCN1N=C(c2ccc(OC)c(OC)c2)[C@@H]2CCCC[C@@H]2C1=O` (relative stereo) registered a melting point of 99 to 101 °C.
The result for `Cc1cc(C)c2nn3c(SCc4ccccc4)nc(N)nc3c2n1` reads 263 to 265 °C.
The same measure for `CC1Cc2cc3c(cc2C(c2ccc([N+](=O)[O-])cc2)=NN1)OCO3` (centres undefined): 162 to 164 °C; for `Nc1cc(OCCCl)ccc1F`: 42 to 43 °C; for `O=C(Nc1cc(F)cc2c(Cl)ccnc12)c1c(Cl)cccc1Cl`: 200 to 213 °C.
The result for `CC(C)C(O)CN1N=C(c2ccc(Cl)cc2)CCC1=O` (centres undefined) reads 90 to 92 °C; that for `NCC1Cc2cc(-c3ccc(F)cc3)cc(F)c2O1` (centres undefined), over 250 °C; that for `Clc1ccc2nc(-c3cccs3)c(I)n2n1`, 205 to 209 °C.
Compound `CCCc1cc2cc(OC)ccc2[nH]1` yielded a melting point of 49 to 50 °C.
The same measure for `Cc1ccc(S(=O)(=O)n2ccc3c(-c4c(C)nc5ccc(Cl)nn45)ccnc32)cc1`: 138 to 140 °C; for `CSc1ccc(C2=CC(=O)C(C)(C)O2)cc1`: 107 to 109 °C; for `COc1ccc(-c2cncc(OC3SCC(OC(C)=O)C(OC(C)=O)C3OC(C)=O)c2)c(C)c1` (centres undefined): 283 °C.
As for `CCCCCCCCCCCCCCCCCCN(C)S(=O)(=O)c1ccc(Cl)c([N+](=O)[O-])c1`, the melting point is 86 to 87 °C.
For `Cc1[nH]cnc1CN1CCc2c(c3cccc(OCc4ccccc4)c3n2COCc2ccccc2)C1=O`, the melting point lay in the range of 170 to 172 °C.
Turning to `Nc1nc(-c2cc(Cl)ccc2Cl)nc(N2CC(O)C2)n1`, the melting point was 256 to 257 °C.
In turn, `COC(=O)NC(=O)NS(=O)(=O)c1ccc(Cl)cc1` registered a melting point of 174 to 175 °C.
The result for `CCc1cccc2c1CCN([C@@H]1CN3CCC1CC3)C2=O` reads over 290 °C; that for `OC1CSC(Oc2ccc(-c3ccco3)nc2)C(O)C1O` (centres undefined), 146 °C; that for `CCCCn1nc2c(N)nc3ccccc3c2c1CC(C)C`, 165 to 166 °C.
`Cc1cc(NCCO)c2[nH]nc(-c3ccccc3)c2n1`: the melting point came to 135 °C.
In turn, `CCOC(=O)CC(=O)c1cc(OC)c(OC)c([N+](=O)[O-])c1` registered a melting point of 67 to 68 °C.
The same measure for `O=C(Nc1cccc(C(F)(F)F)c1)c1cccnc1NCc1cccc(O)c1`: 143 to 146 °C; for `CCN(CC)CCOc1ccc(Nc2ncc3c(n2)N(C)C(=O)N(c2ccccc2)C3)cc1`: 141 to 144 °C.
The result for `Oc1c(Cl)cc(C2=NCCO2)cc1Cl` reads 189 to 191 °C; that for `COc1ccccc1CNc1ccc2cc(Nc3nnc(C)o3)ccc2n1`, 183 °C.
As for `COc1ccc(S(=O)(=O)C2(C(=O)O)CCN(Cc3ccc(OCCN4CCCCC4)cc3)CC2)cc1`, the melting point amounted to 114 °C.
Compound `Oc1ccc2c(c1O)C(=Cc1ccnc3ccccc13)c1ccccc1-2` returned a melting point of 315 °C.
As for `Cc1csc(-c2cc(C)cn2-c2ccc(S(N)(=O)=O)cc2)c1`, the melting point fell in the range of 172 to 173 °C.
The result for `COc1ccc(CC2C(=O)N(Cc3ccccc3)c3ccccc3N(C(=O)CN3C(=O)c4ccccc4C3=O)C2C)cc1` (centres undefined) reads 247 to 248 °C; that for `CCCc1sc(N)c(C(=O)c2ccc(Cl)cc2)c1C`, 94 to 95 °C.
The result for `COC(=O)CCCCC(=O)Nc1c(I)c(C(=O)O)c(I)c(N(C)C(C)=O)c1I` reads 229 to 232 °C; that for `CCOCCOCCOCCOc1cc(OCCCCCCCCCCCCOc2ccccc2)cc(N(CC(=O)O)CC(=O)O)c1`, 58 to 61 °C; that for `Oc1ccc(N2CCN(c3nncc4ccccc34)CC2)cc1`, 244 to 245 °C.
Compound `CN(c1ncccc1C=O)C1CCN(C(=O)OC(C)(C)C)CC1` displayed a melting point of 90 to 91 °C.
The same measure for `O=[N+]([O-])c1ccc(OCc2ccc3ccccc3n2)cc1`: 142 to 143 °C; for `N#Cc1sc2cc(NC(=O)OCc3ccccc3)ccc2c1Cl`: 155 to 166 °C.
The result for `O=C(Nc1ccc(C(=O)N2CCCCc3cc(Cl)ccc32)cn1)c1ccccc1OCCCCO` reads 157 to 158 °C; that for `Cc1ccc(N)c(C(N)=O)c1`, 171 to 174 °C; that for `NC(=O)CN1C(=O)C[C@@H]2CCCC[C@@H]21` (relative stereo), 145 to 146 °C.
The result for `O=C1c2ccccc2NC(c2ccc(=O)[nH]c2)N1c1ccc(F)c(C(F)(F)F)c1` (centres undefined) reads 260 to 261 °C; that for `CC1(C)CC(=O)c2c(Nc3ccccc3)cn(-c3ccccn3)c2C1`, 135 to 138 °C.
As for `CCn1c2ccccc2c2cc(NC(=O)OC)ncc21`, the melting point was in the range of 213 to 214 °C.
The result for `Cc1oc(-c2ccccc2)nc1COc1ccc(OCc2ncccc2CC#N)cc1` reads 134 to 135 °C; that for `CCOC(=O)c1c2n(c3cc(F)c(F)cc3c1=O)CCCC2`, 166 to 168 °C.
The result for `O=C1C(Cl)=C(Cl)C(=O)c2cc(Cl)ccc21` reads 148 °C; that for `CN(C)Cc1ccc2cc(NC(=O)c3ccc(-c4ccc(Cl)cc4)cc3)ccc2n1`, 219 to 221 °C.
The same measure for `CCN(CC)C(=O)c1ccc2ccccc2c1-c1ccc(C(F)(F)F)cc1`: 111 to 112 °C; for `Nc1ccncc1C(=NO)c1ccccc1F`: 212 to 214 °C; for `COC(=O)c1ccnc(-c2cccc3cc(Cc4cccc(C(F)(F)F)c4)sc23)c1`: 106 to 107 °C.
`CC(=O)Nc1c(C(=O)c2cccc(S(N)(=O)=O)c2)[nH]c2cc(Cl)ccc12` showed a melting point of 250 to 251 °C.
Consider `CN(C)C(=O)c1ccc2ccccc2c1/C=C/c1ccccc1`, for which the melting point was 114 to 116 °C.
The result for `COc1ccc(-c2cc3c(OC)cc(OC)cc3nc2OC(C)C(=O)N(C)C)cc1` (centres undefined) reads 54 to 55 °C; that for `CCCCCCCCCCNC(=O)c1cccc([N+](=O)[O-])c1`, 86 to 88 °C.
With `Cc1cc(=O)[nH]c2nc(OCCCCN3CCN(c4cccc(Cl)c4Cl)CC3)ccc12`, the melting point fell in the range of 181 to 182 °C.
Turning to `O=C(Nc1cccc(C(F)(F)F)c1)C1C(=O)C2CCC(C2)C1=O` (centres undefined), the melting point was in the range of 68 to 69 °C.
Turning to `CC(C)(C)c1cc2c(c(C(C)(C)C)c1)O[Si](C)(C)Oc1c-2cc(C(C)(C)C)cc1C(C)(C)C`, the melting point lay in the range of 170 to 176 °C.
`COC(=O)c1cscc1O` gave a melting point of 40 to 43 °C.
The result for `CC(C)(C)OC(=O)N[C@H]1CCN(c2nc3c(cc2F)c(=O)c(C(=O)O)cn3C2CC2)C1` reads 247 to 249 °C; that for `O=S1CC2CC(CN(Cc3ccccc3)C2)C1` (centres undefined), 137 to 138 °C.
The result for `COc1ccc(CN(C)CCCOc2ccc(S(=O)(=O)c3c(C(C)C)cn4ccccc34)cc2)cc1OC` reads 96 to 100 °C.
The result for `CC(=O)CNC(=O)c1ccccc1C` reads 65 to 66 °C; that for `CCn1cc(C(=O)OCC(=O)OCC2CCCCC2)c(=O)c2ccc(C)nc21`, 130 to 132 °C; that for `CC(C)=CCN1C(=O)c2ccccc2C1=O`, 95 to 97 °C.
For the compound `CCOC(=O)c1cnc2nc(C)c(OCC)cc2c1Cl`, the melting point was over 250 °C.
The same measure for `COC(=O)C1CCc2oc3cc(OC)ccc3c2C1=O` (centres undefined): 173 to 175 °C; for `CCCCNC(=O)NS(=O)(=O)c1ccc(N2CCC(NC[C@H](O)c3ccc(O)c(NS(C)(=O)=O)c3)CC2)cc1`: 100 to 102 °C.
The result for `CCOC(=O)Cc1cc(C)c(C(=O)c2ccc(Cl)c(Cl)c2)n1C` reads 92 to 93.5 °C; that for `CSc1nc(-c2ccncc2)n(-c2ccc(F)cc2)c(=O)c1C#N`, 301 to 303 °C; that for `CC(=NO)c1nc(-c2cccnc2)[nH]c1C`, 215 to 216 °C.
The result for `CC(C)(C)c1ccc(CC[C@@H](N)[C@H](O)c2ccc(F)cc2)cc1` (racemic) reads 139 to 140 °C; that for `NS(=O)(=O)c1cc2c(=O)[nH]ccc2s1`, 300 to 301 °C.
For the compound `CCOC(=O)CN(Cc1ccccc1)C(=S)CCc1nc2c(F)c(F)cc(F)c2s1`, the melting point fell in the range of 86 to 88 °C.
As for `COc1cc(F)cc(-c2nn(Cc3oc4ccccc4c(=O)c3-c3cccc(F)c3)c3ncnc(N)c23)c1`, the melting point fell in the range of 115 to 117 °C.
The result for `Clc1cnn2c(-c3ccccn3)ccnc12` reads 141 to 143 °C; that for `CC(C#N)(C(=O)NC1CCCCC1)c1ccccc1` (centres undefined), 76 to 78 °C; that for `O=C(c1ccccc1)N1CCN(c2ccc3nc4[nH]c(=O)[nH]c4cc3c2)CC1`, over 300 °C.
With `CC(c1ccccc1Cl)n1cnc2cnc3ccccc3c21` (centres undefined), the melting point lay within 156 to 158 °C.
With `CCc1nc2c(o1)C(=O)C=CC2=O`, the melting point was determined as 99 °C.
